According to BindingDB's records for doi:10.7270/Q2NP26K8 (n/a, 1992):

How the values were obtained:
Assay in all cases: Inhibition of guinea pig heart Phosphodiesterase 3
PDE3 (Cavia porcellus) [1] = target: PDE3 (Cavia porcellus)
PDE3 (Cavia porcellus) [2] = target: PDE3 (Cavia porcellus); remark: listed apart in the source
PDE3 (Cavia porcellus) [3] = target: PDE3 (Cavia porcellus); remark: listed apart in the source

COc1ccc(C(=O)N2CCCc3cc(C4=NNC(=O)S[C@@H]4C)ccc32)cc1OC
IC50 (PDE3 (Cavia porcellus) [1]): 50 nM
IC50 (PDE3 (Cavia porcellus) [2]): 60 nM
IC50 (PDE3 (Cavia porcellus) [3]): 60 nM
